For this assay, the target named is SARS-CoV-2 Mpro (Severe acute respiratory syndrome coronavirus 2, UniProt P0DTD1). Kind of assay: biochemical. In kind it is biochemical.

This note sets out measurements from PMC10405867 (Journal of Enzyme Inhibition and Medicinal Chemistry, 2023).

On to `NS(=O)(=O)c1ccc(NC(=O)Cn2cc(CN3C(=O)C(=O)c4cc(OC(F)(F)F)ccc43)nn2)cc1` [6d, 2–(4-((2,3-Dioxo-5-(trifluoromethoxy)indolin-1-yl)methyl)-1H-1,2,3-triazol-1-yl)-N-(4-sulfamoylphenyl)acetamide], for which it took 1.05 ± 0.053 µM to reach half-maximal inhibition (IC50) and the “fold decreased 3CL-Pro inhibitory activity than unsubstituted counterpart 6a” value is recorded as “about 2 fold”.
On to `COc1ccc2c(c1)C(=O)C(=O)N2Cc1cn(CC(=O)Nc2ccc(C(C)=O)cc2)nn1` [10b, N-(4-Acetylphenyl)-2–(4-((5-methoxy-2,3-dioxoindolin-1-yl)methyl)-1H-1,2,3-triazol-1-yl)acetamide], for which the half-maximal inhibitory concentration (IC50) (as a rule, the concentration at which inhibition is half-maximal) came to 17.1 ± 0.815 µM.
Still for that read-out and setting: the same measure for `NS(=O)(=O)c1ccc(NC(=O)Cn2cc(CN3C(=O)C(=O)c4ccccc43)nn2)cc1` [6a, 2–(4-((2,3-Dioxoindolin-1-yl)methyl)-1H-1,2,3-triazol-1-yl)-N-(4-sulfamoylphenyl)acetamide]: 0.562 ± 0.005 µM.
Still for that read-out and setting: the same measure for `CC(=O)c1ccc(NC(=O)Cn2cc(CN3C(=O)C(=O)c4ccccc43)nn2)cc1` [10a, N-(4-Acetylphenyl)-2–(4-((2,3-dioxoindolin-1-yl)methyl)-1H-1,2,3-triazol-1-yl)acetamide]: 12.3 ± 0.73 µM.
